# Results: ChEMBL document CHEMBL1944599, “From libraries to candidate: the discovery of new ultra long-acting dibasic β₂-adrenoceptor agonists” (Bioorg Med Chem Lett, 2012)
# How the values were obtained:
# [1] = molecular target: T1, Alpha-1D adrenergic receptor (Homo sapiens, UniProt P25100); assay: Displacement of radiolabeled Prazosin from alpha1D adrenoceptor
# T1 sequence (P25100 whole entry): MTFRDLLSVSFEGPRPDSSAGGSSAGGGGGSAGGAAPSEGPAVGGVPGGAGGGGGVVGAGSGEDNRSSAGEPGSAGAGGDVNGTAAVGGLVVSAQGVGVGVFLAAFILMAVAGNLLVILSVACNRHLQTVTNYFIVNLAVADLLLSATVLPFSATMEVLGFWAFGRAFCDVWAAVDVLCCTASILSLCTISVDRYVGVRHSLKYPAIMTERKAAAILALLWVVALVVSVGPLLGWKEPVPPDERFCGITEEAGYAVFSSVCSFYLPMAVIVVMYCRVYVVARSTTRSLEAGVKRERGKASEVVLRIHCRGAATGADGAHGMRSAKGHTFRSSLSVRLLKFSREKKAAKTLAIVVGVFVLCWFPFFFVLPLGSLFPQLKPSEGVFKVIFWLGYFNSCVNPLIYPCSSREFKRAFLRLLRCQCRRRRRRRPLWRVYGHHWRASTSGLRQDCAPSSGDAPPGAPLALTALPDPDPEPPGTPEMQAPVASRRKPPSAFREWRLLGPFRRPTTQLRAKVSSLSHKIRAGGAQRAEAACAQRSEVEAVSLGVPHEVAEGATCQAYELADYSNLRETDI
# [2] = molecular target: T2, Beta-2 adrenergic receptor (Homo sapiens, UniProt P07550); assay: Displacement of radiolabeled iodocyanopindolol from recombinant beta2 adrenoceptor
# D(2) dopamine receptor = D(2) dopamine receptor (Homo sapiens, UniProt P14416); assay: Displacement of radiolabeled spiperone from dopamine D2 receptor
# [3] = molecular target: Beta-1 adrenergic receptor (Homo sapiens, UniProt P08588); assay: Displacement of radiolabeled iodocyanopindolol from beta1 adrenoceptor
# [4] = molecular target: T2, Beta-2 adrenergic receptor; assay: Agonist activity at human beta2 adrenoceptor expressed in H292 cells assessed as increase in cAMP accumulation after 60 mins by spectrophotometry; format: functional, cell-based
# [5] = octanol/water, pH 7.4
# T2 sequence (P07550 whole entry): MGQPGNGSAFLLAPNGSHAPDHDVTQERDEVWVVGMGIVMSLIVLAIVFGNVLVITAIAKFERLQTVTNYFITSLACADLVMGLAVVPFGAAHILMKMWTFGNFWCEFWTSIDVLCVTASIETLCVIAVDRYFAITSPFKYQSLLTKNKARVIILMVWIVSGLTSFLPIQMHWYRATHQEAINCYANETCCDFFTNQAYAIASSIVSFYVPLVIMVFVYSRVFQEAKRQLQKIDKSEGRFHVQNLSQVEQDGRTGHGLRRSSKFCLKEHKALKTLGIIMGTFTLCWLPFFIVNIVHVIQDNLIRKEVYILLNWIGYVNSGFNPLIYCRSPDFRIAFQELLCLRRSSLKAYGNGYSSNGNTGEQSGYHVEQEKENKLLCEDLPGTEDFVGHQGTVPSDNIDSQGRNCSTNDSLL
# Sequence of Beta-1 adrenergic receptor (P08588 whole entry): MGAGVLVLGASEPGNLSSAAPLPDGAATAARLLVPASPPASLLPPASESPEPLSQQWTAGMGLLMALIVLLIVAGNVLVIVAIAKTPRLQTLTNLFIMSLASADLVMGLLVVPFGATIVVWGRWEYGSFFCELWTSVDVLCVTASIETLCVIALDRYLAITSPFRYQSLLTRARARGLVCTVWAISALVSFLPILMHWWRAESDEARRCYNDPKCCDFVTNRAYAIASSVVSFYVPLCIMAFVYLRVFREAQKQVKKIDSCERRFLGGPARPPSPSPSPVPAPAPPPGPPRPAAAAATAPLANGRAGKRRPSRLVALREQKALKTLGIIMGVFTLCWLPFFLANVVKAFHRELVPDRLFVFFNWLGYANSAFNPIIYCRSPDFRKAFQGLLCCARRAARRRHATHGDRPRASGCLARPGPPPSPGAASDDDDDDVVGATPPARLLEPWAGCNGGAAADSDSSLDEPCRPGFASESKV
# Sequence of D(2) dopamine receptor (P14416 whole entry): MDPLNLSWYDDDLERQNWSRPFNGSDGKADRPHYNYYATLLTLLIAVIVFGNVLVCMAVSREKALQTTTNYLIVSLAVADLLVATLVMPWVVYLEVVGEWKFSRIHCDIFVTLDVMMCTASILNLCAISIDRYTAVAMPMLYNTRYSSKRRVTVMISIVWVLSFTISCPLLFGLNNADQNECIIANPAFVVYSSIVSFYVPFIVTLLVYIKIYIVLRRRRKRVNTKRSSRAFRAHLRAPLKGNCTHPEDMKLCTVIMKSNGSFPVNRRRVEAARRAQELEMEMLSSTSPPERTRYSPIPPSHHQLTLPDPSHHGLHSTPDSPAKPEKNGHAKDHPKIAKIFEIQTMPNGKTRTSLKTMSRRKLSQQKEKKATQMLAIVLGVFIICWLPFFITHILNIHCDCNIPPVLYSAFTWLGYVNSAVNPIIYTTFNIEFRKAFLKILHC
structure (smiles),measurement,setting,value
O=c1[nH]c2c(O)ccc([C@@H](O)CNCCc3cccc(CN4CCCC4)c3)c2s1,IC50,[1],1 µM
same,IC50,[2],0.00398 µM
same,IC50,D(2) dopamine receptor,3.16 µM
same,IC50,[3],0.316 µM
same,EC50,[4],0.000631 µM
same,logD,[5],0.8
